Reference: ChEMBL document CHEMBL4382202, “1-(2-Hydroxybenzoyl)-thiosemicarbazides are promising antimicrobial agents targeting d-alanine-d-alanine ligase in bacterio” (Eur J Med Chem, 2018)
Active and inactive are the calls of the source. The rule behind the calls is not given here.

Key:
[1] = target: T1, D-alanine--D-alanine ligase (Enterococcus faecalis (strain ATCC 700802 / V583)) (UniProt Q47758); experiment: Inhibition of Enterococcus faecalis JH2-2 C-terminal 6His-tagged DdlB expressed in Escherichia coli LMG194 assessed as Vmax/Km of ATP at 10 uM by Biomol Green reagent assay (reference value: 0.3 /min)
T1 sequence (whole entry): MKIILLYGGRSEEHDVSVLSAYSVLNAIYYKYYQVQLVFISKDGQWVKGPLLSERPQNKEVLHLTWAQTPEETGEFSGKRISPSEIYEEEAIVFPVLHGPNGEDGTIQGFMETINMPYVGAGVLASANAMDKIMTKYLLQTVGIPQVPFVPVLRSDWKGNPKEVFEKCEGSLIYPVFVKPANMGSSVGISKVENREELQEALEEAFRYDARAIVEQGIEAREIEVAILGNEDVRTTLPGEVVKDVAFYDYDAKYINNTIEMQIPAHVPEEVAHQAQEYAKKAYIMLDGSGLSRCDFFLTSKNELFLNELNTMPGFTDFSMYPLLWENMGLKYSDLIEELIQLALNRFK

[2] = target: T1, D-alanine--D-alanine ligase (Enterococcus faecalis (strain ATCC 700802 / V583)); experiment: Inhibition of Enterococcus faecalis JH2-2 C-terminal 6His-tagged DdlB expressed in Escherichia coli LMG194 at 10 uM preincubated for 30 mins followed by substrate addition and measured after 20 mins by Biomol Green reagent assay relative to control
Klebsiella pneumoniae = experiment: Antibacterial activity against Klebsiella pneumoniae ATCC 700603 after 18 to 24 hrs by microdilution assay; assay type: functional, organism-based
[3] = target: Muscarinic acetylcholine receptor M1 (Homo sapiens) (UniProt P11229); experiment: Displacement of […] from human recombinant M1 receptor at 10 uM after 60 mins by scintillation counting analysis relative to control
Chain of Muscarinic acetylcholine receptor M1 (Homo sapiens) (P11229 whole entry): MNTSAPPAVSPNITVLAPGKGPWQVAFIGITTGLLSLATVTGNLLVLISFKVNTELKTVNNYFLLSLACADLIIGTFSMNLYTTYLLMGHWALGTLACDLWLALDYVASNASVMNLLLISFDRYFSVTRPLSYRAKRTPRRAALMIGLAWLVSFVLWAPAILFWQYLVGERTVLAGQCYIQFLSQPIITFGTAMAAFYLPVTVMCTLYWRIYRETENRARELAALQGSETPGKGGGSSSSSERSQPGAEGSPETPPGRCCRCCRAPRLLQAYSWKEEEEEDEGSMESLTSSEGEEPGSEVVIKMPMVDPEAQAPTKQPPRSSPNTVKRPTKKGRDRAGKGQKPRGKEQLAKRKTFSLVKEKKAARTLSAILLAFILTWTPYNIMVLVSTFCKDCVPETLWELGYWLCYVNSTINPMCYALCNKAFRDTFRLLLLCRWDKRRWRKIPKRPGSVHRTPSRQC

Escherichia coli = experiment: Antibacterial activity against Escherichia coli ATCC 25922 after 18 to 24 hrs by microdilution assay; assay type: functional, organism-based
[4] = target: Prostaglandin G/H synthase 1 (Homo sapiens) (UniProt P23219); experiment: Inhibition of human recombinant COX1 at 10 uM using arachidonic acid as substrate after 3 mins by fluorimetric analysis relative to control
Chain of Prostaglandin G/H synthase 1 (Homo sapiens) (P23219 whole entry): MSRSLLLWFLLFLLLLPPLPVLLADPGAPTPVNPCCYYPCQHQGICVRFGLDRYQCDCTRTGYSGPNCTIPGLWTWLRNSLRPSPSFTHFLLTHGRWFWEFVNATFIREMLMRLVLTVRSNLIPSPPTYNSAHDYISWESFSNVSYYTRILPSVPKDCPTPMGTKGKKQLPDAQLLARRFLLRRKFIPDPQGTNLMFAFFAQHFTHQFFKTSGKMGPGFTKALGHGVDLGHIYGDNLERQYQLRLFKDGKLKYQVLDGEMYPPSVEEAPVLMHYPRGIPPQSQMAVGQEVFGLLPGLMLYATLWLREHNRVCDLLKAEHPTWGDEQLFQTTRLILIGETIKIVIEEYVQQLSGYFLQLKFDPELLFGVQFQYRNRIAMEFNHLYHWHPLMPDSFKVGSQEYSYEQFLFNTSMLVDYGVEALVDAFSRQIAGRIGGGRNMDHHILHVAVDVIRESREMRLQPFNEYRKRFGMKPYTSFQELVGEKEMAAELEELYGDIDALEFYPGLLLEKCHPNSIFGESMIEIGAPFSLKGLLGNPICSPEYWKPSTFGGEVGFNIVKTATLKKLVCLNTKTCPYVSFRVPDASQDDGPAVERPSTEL

[5] = target: Secretory phospholipase A2 (Homo sapiens) (UniProt Q5R387+Q9NZK7+P14555+Q9BZM2+Q9UNK4+P39877+O15496+P04054+Q9NZ20+Q9BZM1+Q9BX93); experiment: Inhibition of human sPLA2 at 10 uM relative to control; assay type: protein assay
Staphylococcus aureus = experiment: Bactericidal activity against Staphylococcus aureus ATCC 25923 assessed as reduction of bacterial load at 2 to 5 times MIC after 24 hrs by time kill assay; assay type: functional, organism-based
[6] = target: T1, D-alanine--D-alanine ligase (Enterococcus faecalis (strain ATCC 700802 / V583)); experiment: Mixed non-competitive type inhibition of Enterococcus faecalis JH2-2 C-terminal 6His-tagged DdlB expressed in Escherichia coli LMG194 at 1 to 10 uM preincubated for 30 mins followed increasing substrate and fixed ATP addition and measured after 20 mins by Biomol Green reagent assay
[7] = target: Monoglyceride lipase (Homo sapiens) (UniProt Q99685); experiment: Inhibition of human MAGL at 10 uM relative to control
Chain of Monoglyceride lipase (Homo sapiens) (Q99685 whole entry): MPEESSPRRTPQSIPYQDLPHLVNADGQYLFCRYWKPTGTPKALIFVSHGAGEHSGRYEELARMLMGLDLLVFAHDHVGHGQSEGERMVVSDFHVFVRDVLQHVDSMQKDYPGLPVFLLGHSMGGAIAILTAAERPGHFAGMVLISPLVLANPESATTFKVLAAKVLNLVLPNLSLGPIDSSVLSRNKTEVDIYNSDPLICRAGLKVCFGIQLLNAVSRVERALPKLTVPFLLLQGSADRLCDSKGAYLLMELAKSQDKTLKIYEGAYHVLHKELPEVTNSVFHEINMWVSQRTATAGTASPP

## O=C(NNC(=S)Nc1ccc(Cl)c(Cl)c1)c1ccccc1O
[1]
  Vmax/Km: 0.1 min⁻¹
[2]
  inhibition: > 30%
Klebsiella pneumoniae
  MIC: inactive
[3]
  inhibition: < 30%
Escherichia coli
  MIC: inactive
[4]
  inhibition: < 30%
[5]
  inhibition: < 30%
Staphylococcus aureus
  Activity: Active
[6]
  inhibition: Active
[7]
  inhibition: < 30%
